US6369107B1, “Combined use of diclofenac and tribenoside to treat osteoarthritis” (KS Biomedix Ltd., priority 1994, dated 2002)
Values joined by “and” are separate entries in the source; they are usually repeats but may differ in a detail not shown here. Equal values may be shown once.

Tests used:
monoamine oxidase (MAO) [1] = settings: mice given the drug; background, Chambers et al 1992; cited from earlier work
STR/ORT mice [2] = settings: mice given the drug; background; cited from earlier work
[3] = test system: matrix of cartilages of the tibial plateau of STR/ORT mice; assay: Quantitative interference microscopy of dry mass per unit area in the tibial plateau cartilage matrix of treated STR/ORT mice; assay type: in vivo; settings: for effect on the dry mass per unit area (and therefore water content) of medial cartilage: feeding STR/ORT mice
Source text: The extra-cellular factor was studied by quantitative interference microscopy, as described by Ross, “Phase Contrast and Interference Microscopy for Cell Biologists” Arnold: London, p.36 (1967). This form of microscopy allows the investigator to measure the dry mass, per unit area (Cs), in selected regions of a section or of a cell. This measurement then allows the assessment of water content (Cw): […]

STR/ORT mice [4] = assay: Development of osteoarthritis / cartilage damage in STR/ORT mice; assay type: in vivo; settings: fraction of mice
Source text: The present invention is based on the postulate that two influences are involved in the development of OA: a cellular and an extracellular factor.

monoamine oxidase (MAO) [5] = assay: Localisation of monoamine oxidase (MAO) activity in chondrocytes of potentially osteoarthritic cartilage of mice; assay type: in vivo; settings: feeding STR/ORT mice
Source text: In normal articular cartilage (human as well as murine), monoamine oxidase in chondrocytes can be found located precisely in mitochondria. During the development of the natural disease in mice, these granules become larger and apparently burst, the monoamine oxidase (MAO) activity becomes distributed through the cytoplasm of the chondrocytes and even into the surrounding matrix. This was described by Chambers et al, Int. J. Exp. Path. 73:115-123 (1992), who related the MAO activity in the medial as against that in the (normal) lateral cartilage in untreated mice and in those treated with diclofenac.
There was no sign of activity in the general cytoplasm or in the matrix.
Results are shown in Table 1, i.e. the dry mass per μm in the matrix of cartilages of the tibial plateau of STR/ORT mice after various treatments. Three mice were treated with diclofenac (Df) alone, four with tribenoside (Tb) alone, and four with both (Df+Tb).

[6] = STR/ORT mice, matrix of tibial plateau cartilage, one line per mouse, * duplicate sections

Row | SMILES | localisation of the MAO in the potentially osteoarthritic cartilage (monoamine oxidase (MAO) [1]) | development of OA (STR/ORT mice [2]) | Mass pg/unit area in the medial cartilage [3, 6] | effect on the dry mass per unit area (and therefore water content) of medial cartilage [3] | mice having severe OA (STR/ORT mice [4]) | Mass pg/unit area in the lateral cartilage [3, 6] | localisation of MAO activity / MAO activity in the medial cartilage (monoamine oxidase (MAO) [5])
1 | O=C(O)Cc1ccccc1Nc1c(Cl)cccc1Cl [Df, diclofenac sodium] | marked improvement | did not stop the development of OA | 0.51 pg/unit area and 0.50 pg/unit area and 0.52 pg/unit area | no effect | at least 9/10 | – | –
2 | CCOC1O[C@H]([C@@H](COCc2ccccc2)OCc2ccccc2)[C@H](OCc2ccccc2)[C@H]1O (stereo partly drawn) [Tb, tribenoside] | – | – | 2.54 pg/unit area and 2.76 pg/unit area and 2.58 pg/unit area and 2.77 pg/unit area and 2.29 pg/unit area and 2.44 pg/unit area and 3.14 pg/unit area | markedly increased | – | 2.84 pg/unit area | did not improve
